What was measured:
hERG channel (Kv11.1) = molecular target: T1, hERG channel (Kv11.1) (Homo sapiens, UniProt Q12809); assay: hERG QPatch screening protocol (hERG current block); type: cell-based; conditions: HEK-293 cells stably transfected with hERG; tail current; room temperature
T1 construct: W. January (Wisconsin Alumni Research Foundation); host or cells: HEK-293
Protocol: hERG QPatch Screening Protocol
Solutions and Compound Plates:
The bath solution contained (in mM): 140 NaCl, 5 KCl, 1 MgCl2, 2 CaCl2, 5 glucose, 20 HEPES, pH=7.4. The internal solution contained (in mM): 125 K-aspartate, 20 KCl, 10 EGTA, 5 MgATP, 1 MgCl2, 5 HEPES, pH=7.3.
Compound plates were prepared with an acoustic liquid handler (Echo® 550, Labcyte), using 384-well source plates and 96-well destination plates. Compounds were delivered to the destination plates as 300 nL spots in half-log increments (1, 3, 10 and 30 mM), dissolved in dimethyl sulfoxide. Plates were solvated with bath solution (300 μL) to final concentrations (1, 3, 10 and 30 μM; 0.1% dimethyl sulfoxide) and added to the QPatch workstation.
Cells and Cell Preparation:
Human embryonic kidney (HEK-293) cells, stably transfected with the hERG channel, were obtained from Dr. C. W. January (Wisconsin Alumni Research Foundation). Cells were initially maintained at 37° C. (5% CO2 atmosphere) in MEM supplemented media. Cells were cryo-preserved in 10% dimethyl sulfoxide, 90% fetal bovine serum at 10 M cells/mL. For electrophysiological studies, cells were thawed, resuspended in media at 1.0-1.5 M cells/mL and placed on the QPatch workstation.
QPatch Electrophysiology Workstation and Experimental Protocol:
Currents were recorded using QPatch HT (Sophion), an automated planar patch-clamp system. The QPatch uses forty-eight amplifiers and a 48-chamber QPlate positioned directly on top of the headstage. To obtain high resistant seals, cells are added to each chamber and allowed to settle for 10 seconds. Negative pressure is then applied to promote cell delivery to the patch chip openings on the chamber bottom. After formation of GΩ seals, negative pressure ramps are applied to obtain intracellular access. Access resistance was initially optimized by additional pressure ramps to assure the intracellular access was adequate for voltage clamp experiments (targeted access resistance <10 MΩ). Whole-cell compensation and series resistance compensation were used at 60% (both predicted and corrected). Experiments using QPatch were conducted at room temperature.
A single application of each concentration was applied to cells. During a five-minute wash-in period, a four-second depolarizing pulse to +20 mV, followed by a five-second repolarizing pulse to −50 mV was applied once every 15 seconds from a holding potential of −80 mV. Cells were exposed to four ascending concentrations of drug in half-log intervals.
Evaluation of hERG Current Block:
hERG tail current was measured as the difference in amplitude between a […] and the end of a five-second test pulse to −50 mV, preceded by a four-second pulse to +20 mV. The hERG IC50 values for compounds were determined from tail current analysis. The IC50 was calculated with a logistic fitting routine using the following equation: y=[(A1−A2)/(1+(x/IC50))^p]A2, where A1=initial×value, A2=final×value and p=power.

recombinant human Nav1.7 = molecular target: T2, recombinant human Nav1.7 (Homo sapiens, UniProt Q15858); assay: FRET-based membrane potential assay, Nav1.7; type: cell-based; conditions: HEK293 cells expressing recombinant human Nav1.7; veratridine + scorpion venom depolarization
T2 construct: expressed in transfected cells; host or cells: HEK293
T2 sequence (Q15858 whole entry): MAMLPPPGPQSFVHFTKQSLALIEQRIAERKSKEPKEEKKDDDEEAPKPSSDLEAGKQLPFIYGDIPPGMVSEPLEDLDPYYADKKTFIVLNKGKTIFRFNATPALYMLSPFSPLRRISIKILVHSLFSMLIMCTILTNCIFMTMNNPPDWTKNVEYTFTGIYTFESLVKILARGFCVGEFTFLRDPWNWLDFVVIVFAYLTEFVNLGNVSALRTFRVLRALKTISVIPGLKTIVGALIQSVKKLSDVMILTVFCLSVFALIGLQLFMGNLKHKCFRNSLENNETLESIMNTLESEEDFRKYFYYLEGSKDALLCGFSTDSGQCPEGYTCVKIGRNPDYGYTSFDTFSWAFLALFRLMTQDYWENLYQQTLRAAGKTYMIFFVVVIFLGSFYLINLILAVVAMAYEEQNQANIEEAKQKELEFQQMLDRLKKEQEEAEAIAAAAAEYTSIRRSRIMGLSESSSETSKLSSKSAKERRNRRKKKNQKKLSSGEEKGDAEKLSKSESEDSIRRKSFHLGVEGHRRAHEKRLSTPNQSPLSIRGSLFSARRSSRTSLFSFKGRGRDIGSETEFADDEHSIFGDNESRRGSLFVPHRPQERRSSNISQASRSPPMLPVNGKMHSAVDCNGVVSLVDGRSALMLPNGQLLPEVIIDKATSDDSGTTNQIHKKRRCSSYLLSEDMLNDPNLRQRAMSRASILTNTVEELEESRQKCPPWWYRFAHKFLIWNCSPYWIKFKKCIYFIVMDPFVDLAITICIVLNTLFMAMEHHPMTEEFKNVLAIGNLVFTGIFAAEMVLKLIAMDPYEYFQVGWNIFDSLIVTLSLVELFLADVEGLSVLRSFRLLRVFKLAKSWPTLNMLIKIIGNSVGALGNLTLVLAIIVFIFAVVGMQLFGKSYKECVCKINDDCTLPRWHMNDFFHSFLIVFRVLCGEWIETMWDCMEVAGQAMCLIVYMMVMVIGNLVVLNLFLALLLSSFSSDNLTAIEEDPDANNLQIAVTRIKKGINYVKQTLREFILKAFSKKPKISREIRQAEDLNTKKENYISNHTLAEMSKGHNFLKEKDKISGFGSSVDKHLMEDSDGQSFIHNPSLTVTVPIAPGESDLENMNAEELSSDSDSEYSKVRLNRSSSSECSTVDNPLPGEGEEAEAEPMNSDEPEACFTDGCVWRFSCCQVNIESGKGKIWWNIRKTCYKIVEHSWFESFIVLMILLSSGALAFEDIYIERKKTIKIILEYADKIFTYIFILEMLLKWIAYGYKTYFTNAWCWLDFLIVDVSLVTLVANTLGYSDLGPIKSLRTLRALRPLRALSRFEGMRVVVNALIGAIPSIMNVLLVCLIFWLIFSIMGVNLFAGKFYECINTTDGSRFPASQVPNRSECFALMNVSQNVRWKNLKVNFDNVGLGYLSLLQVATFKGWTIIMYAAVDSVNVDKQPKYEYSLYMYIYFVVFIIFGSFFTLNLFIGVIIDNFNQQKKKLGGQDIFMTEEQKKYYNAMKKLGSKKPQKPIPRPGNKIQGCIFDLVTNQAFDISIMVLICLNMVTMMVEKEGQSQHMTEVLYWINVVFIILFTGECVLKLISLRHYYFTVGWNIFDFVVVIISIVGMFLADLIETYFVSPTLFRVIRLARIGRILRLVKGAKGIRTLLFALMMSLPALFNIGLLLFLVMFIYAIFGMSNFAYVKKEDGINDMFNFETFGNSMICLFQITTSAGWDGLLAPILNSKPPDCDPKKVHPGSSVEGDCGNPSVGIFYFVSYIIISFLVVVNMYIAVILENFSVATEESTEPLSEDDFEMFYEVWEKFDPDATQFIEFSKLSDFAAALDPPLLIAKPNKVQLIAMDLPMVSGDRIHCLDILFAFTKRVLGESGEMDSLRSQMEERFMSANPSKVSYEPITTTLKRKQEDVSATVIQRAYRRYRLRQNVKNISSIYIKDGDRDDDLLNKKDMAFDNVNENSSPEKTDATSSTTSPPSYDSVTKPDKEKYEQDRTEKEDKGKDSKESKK

T1 sequence (Q12809 whole entry): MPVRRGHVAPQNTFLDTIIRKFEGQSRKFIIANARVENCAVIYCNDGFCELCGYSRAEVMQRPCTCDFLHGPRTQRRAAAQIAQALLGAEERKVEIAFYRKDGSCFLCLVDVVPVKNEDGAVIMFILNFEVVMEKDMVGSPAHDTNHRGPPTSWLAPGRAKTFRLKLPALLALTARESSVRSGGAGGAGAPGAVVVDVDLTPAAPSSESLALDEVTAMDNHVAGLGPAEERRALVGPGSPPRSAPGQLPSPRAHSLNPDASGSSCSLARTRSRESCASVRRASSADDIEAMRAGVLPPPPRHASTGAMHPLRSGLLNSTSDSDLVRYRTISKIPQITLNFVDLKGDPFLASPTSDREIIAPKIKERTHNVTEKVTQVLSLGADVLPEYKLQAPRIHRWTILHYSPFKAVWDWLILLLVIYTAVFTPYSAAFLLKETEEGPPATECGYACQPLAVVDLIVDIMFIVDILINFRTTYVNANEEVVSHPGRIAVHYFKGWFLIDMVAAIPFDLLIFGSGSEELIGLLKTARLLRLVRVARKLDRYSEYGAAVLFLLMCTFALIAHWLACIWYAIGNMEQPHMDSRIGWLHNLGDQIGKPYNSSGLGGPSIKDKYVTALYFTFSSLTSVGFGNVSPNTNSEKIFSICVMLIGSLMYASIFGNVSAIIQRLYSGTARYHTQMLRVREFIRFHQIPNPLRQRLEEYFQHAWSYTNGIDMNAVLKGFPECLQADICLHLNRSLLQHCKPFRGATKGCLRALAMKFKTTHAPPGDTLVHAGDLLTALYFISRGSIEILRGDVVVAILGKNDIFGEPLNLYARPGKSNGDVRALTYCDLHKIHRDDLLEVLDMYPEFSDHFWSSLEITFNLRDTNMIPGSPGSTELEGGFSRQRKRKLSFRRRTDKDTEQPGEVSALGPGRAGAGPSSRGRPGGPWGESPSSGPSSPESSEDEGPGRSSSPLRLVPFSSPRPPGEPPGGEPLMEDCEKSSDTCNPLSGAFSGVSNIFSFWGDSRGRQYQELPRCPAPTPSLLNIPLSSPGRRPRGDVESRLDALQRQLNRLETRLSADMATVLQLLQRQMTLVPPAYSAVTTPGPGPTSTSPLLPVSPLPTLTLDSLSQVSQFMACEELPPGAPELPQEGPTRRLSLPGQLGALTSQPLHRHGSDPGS

O=C1[C@@H]2CN(S(=O)(=O)CCC(F)(F)F)C[C@@H]2CN1c1cccc2c1cnn2-c1ccccc1F [Example 26, (3aS,6aS)-2-[1-(2-fluorophenyl)-1H-indazol-4-yl]-5-[(3,3,3-trifluoropropyl)sulfonyl]hexahydropyrrolo[3,4-c]pyrrol-1(2H)-one]
IC50 (hERG channel (Kv11.1)): > 30 µM
IC50 (recombinant human Nav1.7): 2.94 µM

O=C(C1CC(Cl)C1)N1C[C@H]2CN(c3cccc4c3cnn4-c3ccccc3F)C(=O)[C@H]2C1 (stereo partly drawn) [Example 43, (3aS,6aR)-5-[(3-chlorocyclobutyl)carbonyl]-2-[1-(2-fluorophenyl)-1H-indazol-4-yl]hexahydropyrrolo[3,4-c]pyrrol-1(2H)-one]
IC50 (hERG channel (Kv11.1)): > 30 µM
IC50 (recombinant human Nav1.7): 3.03 µM

O=C1[C@@H]2CN(S(=O)(=O)c3cccnc3)C[C@@H]2CN1c1cccc2c1cnn2-c1ccccc1F [Example 27, (3aS,6aS)-2-[1-(2-fluorophenyl)-1H-indazol-4-yl]-5-(pyridin-3-ylsulfonyl)hexahydropyrrolo[3,4-c]pyrrol-1(2H)-one]
IC50 (recombinant human Nav1.7): 3.62 µM

C[C@@H](O)CC(=O)N1C[C@@H]2CN(c3cccc4c3cnn4-c3ccccc3F)C(=O)[C@@H]2C1 [Example 39, (3aR,6aS)-2-[1-(2-fluorophenyl)-1H-indazol-4-yl]-5-[(3R)-3-hydroxybutanoyl]hexahydropyrrolo[3,4-c]pyrrol-1(2H)-one]
IC50 (recombinant human Nav1.7): 14.6 µM

O=C1[C@H]2CN(C(=O)n3ccnc3)C[C@H]2CN1c1cccc2c1cnn2-c1ccccc1F (relative stereo) [Example 12, rel-(3aR,6aR)-2-[1-(2-fluorophenyl)-1H-indazol-4-yl]-5-(1H-imidazol-1-ylcarbonyl)hexahydropyrrolo[3,4-c]pyrrol-1(2H)-one]
IC50 (hERG channel (Kv11.1)): 13.7 µM
IC50 (recombinant human Nav1.7): 3.06 µM

CC(C)(O)C(=O)N1CC[C@@H]2CN(c3cccc4c3cnn4-c3ccccc3F)C(=O)[C@@H]21 [Example 47, (3aR,6aR)-5-[1-(2-fluorophenyl)-1H-indazol-4-yl]-1-(2-hydroxy-2-methylpropanoyl)hexahydropyrrolo[3,4-b]pyrrol-6(1H)-one]
IC50 (recombinant human Nav1.7): 3.06 µM

O=C1[C@H]2CN(C(=O)C3(O)CC3)C[C@H]2CN1c1cccc2c1cnn2-c1ccccc1F [Example 42, (3aS,6aR)-2-[1-(2-fluorophenyl)-1H-indazol-4-yl]-5-[(1-hydroxycyclopropyl)carbonyl]hexahydropyrrolo[3,4-c]pyrrol-1(2H)-one]
IC50 (recombinant human Nav1.7): 8.89 µM

CC(C)(C)OC(=O)N1CCC(S(=O)(=O)N2CC3CN(c4cccc5c4cnn5-c4ccccc4F)C(=O)C3C2)CC1 [Example 30, tert-butyl 4-{[(3aS,6aS)-5-[1-(2-fluorophenyl)-1H-indazol-4-yl]-4-oxohexahydropyrrolo[3,4c]-pyrrol-2(1H)-yl]sulfonyl}piperidine-1-carboxylate]
IC50 (recombinant human Nav1.7): 3.62 µM

O=C(C1CC1(F)F)N1C[C@@H]2CN(c3cccc4c3cnn4-c3ccccc3F)C(=O)[C@@H]2C1 (stereo partly drawn) [Example 40, (3aR,6aS)-5-[(2,2-difluorocyclopropyl)carbonyl]-2-[1-(2-fluorophenyl)-1H-indazol-4-yl]hexahydropyrrolo[3,4-c]pyrrol-1(2H)-one]
IC50 (recombinant human Nav1.7): 10.4 µM

C[C@H](O)CC(=O)N1C[C@@H]2CN(c3cccc4c3cnn4-c3ccccc3F)C(=O)[C@@H]2C1 [Example 36, (3aR,6aS)-2-[1-(2-fluorophenyl)-1H-indazol-4-yl]-5-[(3S)-3-hydroxybutanoyl]hexahydropyrrolo[3,4-c]pyrrol-1(2H)-one]
IC50 (recombinant human Nav1.7): 11.5 µM

C[C@@H](O)CC(=O)N1C[C@H]2CN(c3cccc4c3cnn4-c3ccccc3F)C(=O)[C@H]2C1 [Example 38, (3aS,6aR)-2-[1-(2-fluorophenyl)-1H-indazol-4-yl]-5-[(3R)-3-hydroxybutanoyl]hexahydropyrrolo[3,4-c]pyrrol-1(2H)-one]
IC50 (recombinant human Nav1.7): 6.4 µM

CC(C)(O)C(=O)N1CC[C@@H]2CN(c3cccc4c3cnn4-c3ccccc3F)C(=O)[C@@H]21 (relative stereo) [Example 4, rel-(3aR,6aR)-5-[1-(2-fluorophenyl)-1H-indazol-4-yl]-1-(2-hydroxy-2-methylpropanoyl)hexahydropyrrolo[3,4-b]pyrrol-6(1H)-one]
IC50 (hERG channel (Kv11.1)): > 30 µM
IC50 (recombinant human Nav1.7): 1.95 µM

CC(=O)N1C[C@@H]2CN(c3cccc4c3cnn4-c3ccccc3F)C(=O)[C@H]2C1 (relative stereo) [Example 17, rel-(3aR,6aR)-5-acetyl-2-[1-(2-fluorophenyl)-1H-indazol-4-yl]hexahydropyrrolo[3,4-c]pyrrol-1(2H)-one]
IC50 (recombinant human Nav1.7): 8.93 µM

O=C1[C@H]2[C@H](CCN2C(=O)C2(O)CC2)CN1c1cccc2c1cnn2-c1ccccc1F [Example 48, (3aR,6aR)-5-[1-(2-fluorophenyl)-1H-indazol-4-yl]-1-[(1-hydroxycyclopropyl)carbonyl]hexahydropyrrolo[3,4-b]pyrrol-6(1H)-one]
IC50 (recombinant human Nav1.7): 0.593 µM

O=C1[C@@H]2CN(S(=O)(=O)c3ccccc3)C[C@@H]2CN1c1cccc2c1cnn2-c1ccccc1F [Example 29, (3aS,6aS)-2-[1-(2-fluorophenyl)-1H-indazol-4-yl]-5-(phenylsulfonyl)hexahydropyrrolo[3,4-c]pyrrol-1(2H)-one]
IC50 (hERG channel (Kv11.1)): 26.5 µM
IC50 (recombinant human Nav1.7): 2.88 µM

O=C(c1coc(CN2CCCC2)n1)N1C[C@@H]2CN(c3cccc4c3cnn4-c3ccccc3F)C(=O)[C@@H]2C1 [Example 31, (3aR,6aS)-2-[1-(2-fluorophenyl)-1H-indazol-4-yl]-5-{[2-(pyrrolidin-1-ylmethyl)-1,3-oxazol-4-yl]carbonyl}hexahydropyrrolo[3,4-c]pyrrol-1(2H)-one]
IC50 (hERG channel (Kv11.1)): 13.5 µM
IC50 (recombinant human Nav1.7): 0.463 µM

CC(C)(O)C(=O)N1C[C@H]2CN(c3cccc4c3cnn4-c3ccccc3F)C(=O)[C@H]2C1 [Example 41, (3aS,6aR)-2-[1-(2-fluorophenyl)-1H-indazol-4-yl]-5-(2-hydroxy-2-methylpropanoyl)hexahydropyrrolo[3,4-c]pyrrol-1(2H)-one]
IC50 (recombinant human Nav1.7): 13.1 µM

CC(C)C(=O)N1C[C@@H]2CN(c3cccc4c3cnn4-c3ccccc3F)C(=O)[C@@H]2C1 [Example 20, (3aR,6aS)-2-[1-(2-fluorophenyl)-1H-indazol-4-yl]-5-isobutyrylhexahydropyrrolo[3,4-c]pyrrol-1(2H)-one]
IC50 (recombinant human Nav1.7): 4.48 µM

O=C1[C@H]2[C@H](CCN2C(=O)C2(O)CC2)CN1c1cccc2c1cnn2-c1ccccc1F (relative stereo) [Example 5, rel-(3aR,6aR)-5-[1-(2-fluorophenyl)-1H-indazol-4-yl]-1-[(1-hydroxycyclopropyl)carbonyl]hexahydropyrrolo[3,4-b]pyrrol-6(1H)-one]
IC50 (hERG channel (Kv11.1)): > 30 µM
IC50 (recombinant human Nav1.7): 1.68 µM

Cc1noc(C)c1CC(=O)N1C[C@@H]2CN(c3cccc4c3cnn4-c3ccccc3F)C(=O)[C@@H]2C1 [Example 33, (3aR,6aS)-5-[(3,5-dimethyl-1,2-oxazol-4-yl)acetyl]-2-[1-(2-fluorophenyl)-1H-indazol-4-yl]hexahydropyrrolo[3,4-c]pyrrol-1(2H)-one]
IC50 (recombinant human Nav1.7): 13.3 µM

CN(C)C(=O)N1C[C@H]2CN(c3cccc4c3cnn4-c3ccccc3F)C(=O)[C@H]2C1 (relative stereo) [Example 15, rel-(3aR,6aR)-5-[1-(2-fluorophenyl)-1H-indazol-4-yl]-N,N-dimethyl-4-oxohexahydropyrrolo[3,4-c]pyrrole-2(1H)-carboxamide]
IC50 (recombinant human Nav1.7): 7.57 µM

O=C1[C@@H]2CN(S(=O)(=O)C3CC3)C[C@@H]2CN1c1cccc2c1cnn2-c1ccccc1F [Example 28, (3aS,6aS)-5-(cyclopropylsulfonyl)-2-[1-(2-fluorophenyl)-1H-indazol-4-yl]hexahydropyrrolo[3,4-c]pyrrol-1(2H)-one]
IC50 (recombinant human Nav1.7): 3.82 µM

CS(=O)(=O)N1C[C@@H]2CN(c3cccc4c3cnn4-c3ccccc3F)C(=O)[C@@H]2C1 [Example 22, (3aS,6aS)-2-[1-(2-fluorophenyl)-1H-indazol-4-yl]-5-(methylsulfonyl)hexahydropyrrolo[3,4-c]pyrrol-1(2H)-one]
IC50 (recombinant human Nav1.7): 6.72 µM

O=C(NCc1cnco1)N1C[C@H]2CN(c3cccc4c3cnn4-c3ccccc3F)C(=O)[C@H]2C1 (relative stereo) [Example 13, rel-(3aR,6aR)-5-[1-(2-fluorophenyl)-1H-indazol-4-yl]-N-(1,3-oxazol-5-ylmethyl)-4-oxohexahydropyrrolo[3,4-c]pyrrole-2(1H)-carboxamide]
IC50 (recombinant human Nav1.7): 11.1 µM
